{"source": "patent US20230014352A1", "about": "“INHALED STATINS AS BRONCHODILATORS TO IMPROVE LUNG FUNCTION IN RESPIRATORY DISEASES” (priority 2019, published 2023)", "type_in_all_cases": "cell-based, human", "key": {"[1]": {"test_system": "eotaxin-3", "test": "Cytokine mixture (CM)-induced eotaxin-3 expression in ASM cells, dexamethasone with or without pitavastatin", "details": "pitavastatin 0.1, 0.5 or 1 μM added to dexamethasone 0.1, 1 or 5 μM, 60 hrs; CM 15 hrs; FIG. 18", "experimental": "Primary human airway smooth muscle cells were cultured to confluence in serum-containing media (10% FBS), then pre-treated with dexamethasone (“Dex”) at 0.1, 1, or 5 μM, with or without pitavastatin (“Pit”) at 0.1, 0.5, or 1 μM concentrations for 60 hrs. The ASM cells were then exposed to a mixture of cytokines ([…] IL-13, IL-17, and TNFα, “CM”) for 15 hrs, and the expression of eotaxin-3 was measured. “NT” means no treatment."}, "[2]": {"test_system": "IL6", "test": "IL17/TNFα-induced IL6 peptide secretion by ASM cells", "details": "2 mM pitavastatin, 72 hrs; cytokines 18 hrs at 10 ng/mL; 10% FBS; FIG. 14B", "experimental": "Non-asthmatic primary human ASM cells were grown to confluence and were either untreated or pre-treated with 2 mM pitavastatin and GGPP (10 mM) for a total of 72 hours. Total cytokine stimulation was for 18 hours at 10 ng/mL. […] All experiments were conducted under serum-containing media conditions (10% FBS)."}, "[3]": {"test_system": "F-actin", "test": "F-actin expression, immunostaining", "details": "24 hrs; for basal F-actin expression: 1 μM, FIG. 15A/15B", "experimental": "Non-asthmatic primary human ASM cells were treated with either vehicle or pitavastatin (1 μM) for 24 hours. Cells were then immuno-stained for F-actin expression. […] Cell lysates were analyzed by western blot for total ROCK-1, total ROCK-2, total MLC-2, and phosphorylated MLC-2. As shown in FIGS. 15C and 15D, pitavastatin reduced the total expression of ROCK-1, ROCK-2, and MLC-2 (total and phosphorylated).\nNon-asthmatic primary human ASM cells were co-treated with 1 μM pitavastatin (Pit), Pit with 10 μM GGPP, or Pit with 10 μM GGPP plus 100 μM MA for 24 hrs."}}, "note": "Entries after “also recorded” stand apart in the source; their conditions may differ."}
{"smiles": "O=C(O)C[C@H](O)C[C@H](O)/C=C/c1c(C2CC2)nc2ccccc2c1-c1ccc(F)cc1", "note": "[pitavastatin]", "values": [{"measurement": "eotaxin-3 expression", "setting": "[1]", "value": "Significant reductions in eotaxin-3 expression"}, {"measurement": "IL17/TNFα-induced IL6 peptide secretion", "setting": "[2]", "value": "inhibited"}, {"measurement": "reductions of F-actin expression and ASM contraction with GGPP and MA co-treatment", "setting": "[3]; 1 μM Pit with 10 μM GGPP, or with 10 μM GGPP and 100 μM MA, FIG. 15B", "value": "abrogated"}, {"measurement": "basal F-actin expression", "setting": "[3]", "value": "significantly reduced"}, {"measurement": "basal F-actin expression", "setting": "[3]; listed as Pit", "value": "reduced F-actin expression; also recorded: significantly reduced"}]}
